Assay results from patent publication US11566212B2, “Integrated microfluidic system for culturing and testing” (priority 2016, dated 2023).
Read-outs that look alike come from different tables or passages of the source.

Columns and labels:
[1] = not given; remark: listed apart in the source
[2] = Diffusion chips, silicone membrane soaked in isopropyl myristate
[3] = Franz cells, silicone membrane soaked in isopropyl myristate

SMILES: Cn1c(=O)c2c(ncn2C)n(C)c1=O [caffeine]
- Steady state flux (24 h): 13 μg/cm^2 h
- Dm (diffusion coefficient) [2]: 1.8 10^−3 cm^2/h
- tlag (lag time) [2]: 0.37 h
- Steady state flux ([1]; 24 h): 13 μg/cm^2 h
- Dm (diffusion coefficient) [1, 3]: 1.3 10^−3 cm^2/h
- tlag (lag time) [1, 3]: 0.52 h
